In patent publication US7408066B2, “Carbon-linked substituted piperidines and derivatives thereof useful as histamine H3 antagonists” (Schering Corproation, priority 2005, dated 2008):

What was measured:
[1] = biological target: T1, H3 receptors (recombinant human receptor, expressed in HEK-293 cells) (Homo sapiens, UniProt Q9Y5N1); test: H3-receptor binding assay, recombinant human receptor
T1 construct: expressed in transfected cells; host or cells: HEK-293 (human embryonic kidney) cells
Method: (§1) General Procedure for H3-Receptor Binding Assay
(§2) The source of the H3 receptors in this experiment was guinea pig brain. Alternatively, the source of H3 receptors was recombinant human receptor, expressed in HEK-293 (human embryonic kidney) cells.
All compounds to be tested were dissolved in DMSO and then diluted into the binding buffer (50 mM Tris, pH 7.5) such that the final concentration was 2 μg/ml with 0.1% DMSO. Membranes were then added (400 μg of protein, 5 μg in the case of recombinant human receptor) to the reaction tubes. The reaction was started by the addition of 3 nM [^3H]R-α-methyl histamine (8.8 Ci/mmol) or 3 nM [^3H]N^α-methyl histamine (80 Ci/mmol) and continued under incubation at 30° C. for 30 min. Bound ligand was separated from unbound ligand by filtration, and the amount of radioactive ligand bound to the membranes was quantitated by liquid scintillation spectrometry. All incubations were performed in duplicate and the standard error was always less than 10%. Compounds that inhibited more than 70% of the specific binding of radioactive ligand to the receptor were serially diluted to determine a Ki (nM).

[2] = biological target: T2, H3 receptors (guinea pig brain) (Cavia porcellus, UniProt Q9JI35); test: H3-receptor binding assay, guinea pig brain membranes
T2 construct: The brain tissue was homogenized with a solution of 50 mM Tris, pH 7.5; from tissue; host or cells: guinea pig brain membranes
T2 sequence (Q9JI35 whole entry): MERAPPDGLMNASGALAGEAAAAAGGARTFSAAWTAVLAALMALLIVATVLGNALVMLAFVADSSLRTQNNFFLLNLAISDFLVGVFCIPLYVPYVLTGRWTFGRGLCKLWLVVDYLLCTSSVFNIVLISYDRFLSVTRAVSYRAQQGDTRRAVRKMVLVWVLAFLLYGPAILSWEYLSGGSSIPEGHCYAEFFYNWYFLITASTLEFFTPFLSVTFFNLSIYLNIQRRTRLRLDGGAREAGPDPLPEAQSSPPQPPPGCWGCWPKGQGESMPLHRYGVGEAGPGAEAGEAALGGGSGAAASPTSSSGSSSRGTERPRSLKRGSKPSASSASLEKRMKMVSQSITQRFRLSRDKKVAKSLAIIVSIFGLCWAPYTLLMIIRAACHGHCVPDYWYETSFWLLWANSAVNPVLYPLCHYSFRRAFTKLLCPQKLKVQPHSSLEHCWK
Method: as §1, §2
The animals weighed 400-600 g. The brain tissue was homogenized with a solution of 50 mM Tris, pH 7.5. The final concentration of tissue in the homogenization buffer was 10% w/v. The homogenates were centrifuged at 1,000×g for 10 min. in order to remove clumps of tissue and debris. The resulting supernatants were then centrifuged at 50,000×g for 20 min. in order to sediment the membranes, which were next washed three times in homogenization buffer (50,000×g for 20 min. each). The membranes were frozen and stored at −70° C. until needed.
All compounds to be tested were dissolved in DMSO and then diluted into the binding buffer (50 mM Tris, pH 7.5) such that the final concentration was 2 μg/ml with 0.1% DMSO. Membranes were then added (400 μg of protein, 5 μg in the case of recombinant human receptor) to the reaction tubes. […] Bound ligand was separated from unbound ligand by filtration, and the amount of radioactive ligand bound to the membranes was quantitated by liquid scintillation spectrometry. […]

T1 sequence (Q9Y5N1 whole entry): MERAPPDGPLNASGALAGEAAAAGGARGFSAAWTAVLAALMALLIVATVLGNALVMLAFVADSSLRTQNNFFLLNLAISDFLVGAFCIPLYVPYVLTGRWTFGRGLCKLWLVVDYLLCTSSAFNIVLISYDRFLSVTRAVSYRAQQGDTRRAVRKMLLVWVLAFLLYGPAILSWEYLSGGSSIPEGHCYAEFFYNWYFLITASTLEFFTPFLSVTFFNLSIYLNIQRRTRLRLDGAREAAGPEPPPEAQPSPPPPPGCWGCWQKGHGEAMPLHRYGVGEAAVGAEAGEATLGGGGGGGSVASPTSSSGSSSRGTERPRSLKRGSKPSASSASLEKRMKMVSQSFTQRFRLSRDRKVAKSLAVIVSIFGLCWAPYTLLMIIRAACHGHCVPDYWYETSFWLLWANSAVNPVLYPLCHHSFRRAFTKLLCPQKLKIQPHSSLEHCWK

Ki [1] | Ki [2] | Structure (SMILES)
1100 pM | – | CNC(=O)[C@H]1C[C@@]1(c1ccc(Cl)cc1)C1CCN(C(=O)C2CCN(Cc3ccnc(N)c3)CC2)CC1 [Example 88]
– | 350 pM | CS(=O)(=O)NC(c1ccccn1)C1CCN(C(=O)C2CCN(Cc3ccnc(N)c3)CC2)CC1 (centres unmarked) [Example 92]
